CS(=O)(=O)c1ccc(C(=O)C2C(=O)CCCC2=O)c([N+](=O)[O-])c1
solubility (mole fraction)
Conditions	283.15 K	288.15 K	293.15 K	298.15 K	303.15 K	308.15 K	313.15 K	318.15 K	323.15 K
in methyl acetate	0.00134	0.00152	0.00173	0.00194	0.00225	0.00255	0.00293	0.0033	0.00381
in n-butanol	0.000708	0.000999	0.00139	0.00193	0.00273	0.00355	0.00476	0.00601	0.00731
in n-butyl acetate	0.000418	0.000529	0.000664	0.000829	0.00103	0.00127	0.00155	0.0019	0.00231
in n-pentanol	0.000635	0.000889	0.00123	0.00168	0.00228	0.00306	0.00407	0.00536	0.007
in n-propanol	0.0013	0.00168	0.00216	0.00274	0.00376	0.00434	0.0054	0.00669	0.00793
in sec-butanol	0.000341	0.000507	0.000745	0.00108	0.00145	0.00199	0.00307	0.00425	0.00584
